Data from patent publication US7528164B2, “Substituted 4-aryl-4h-pyrrolo[2,3-h]chromenes and analogs as activators of caspases and inducers of apoptosis and the use thereof” (Cytovia, Inc., priority 2002, dated 2009).
Read-outs that look alike come from different tables or passages of the source.

What was measured:
T-47D = assay: Caspase cascade activation assay in T-47D cells (N-(Ac-DEVD)-N'-ethoxycarbonyl-R110 fluorogenic substrate); format: cell-based; conditions: T-47D human breast cancer cells, 24 h incubation; for Caspase activity (Ratio): ratio of net RFU of test compound to control; for EC50: sigmoidal dose-response, read-out: Caspase potency EC50
Protocol: (§1) Human breast cancer cell lines T-47D and ZR-75-1 were grown according to media component mixtures designated by American Type Culture Collection+10% FCS (Invitrogen Corporation), in a 5% CO2-95% humidity incubator at 37° C. T-47D and ZR-75-1 cells were maintained at a cell density between 30 and 80% confluency at a cell density of 0.1 to 0.6×10^6 cells/mL. Cells were harvested at 600×g and resuspended at 0.65×10^6 cells/mL into appropriate media+10% FCS. An aliquot of 45 μl of cells was added to a well of a 96-well microtiter plate containing 5 μl of a 10% DMSO in RPMI-1640 media solution containing about […] of 2-amino-3-cyano-4-(5-methyl-pyridin-3-yl)-7-methyl-4H-pyrrolo[2,3-h]chromene (Example 10) or other test compound (0.016 to 1 μM final). An aliquot of 45 μl of cells was added to a well of a 96-well microtiter plate containing 5 μl of a 10% DMSO in RPMI-1640 media solution without test compound as the control sample. The samples were mixed by agitation and then incubated at 37° C. for 24 h in a 5% CO2-95% humidity incubator. After incubation, the samples were removed from the incubator and 50 μl of a solution containing 20 μM of N-(Ac-DEVD)-N′-ethoxycarbonyl-R110 (SEQ ID No:1) fluorogenic substrate (Cytovia, Inc.; U.S. Pat. No. 6,335,429), 20% sucrose (Sigma), 20 mM DTT (Sigma), 200 mM NaCl (Sigma), 40 mM Na PIPES buffer pH 7.2 (Sigma), and 500 μg/ml lysolecithin (Calbiochem) was added. The samples were mixed by agitation and incubated at room temperature. Using a fluorescent plate reader (Model 1420 Wallac Instruments), an initial reading (T=0) was made approximately 1-2 min after addition of the substrate solution, employing excitation at 485 nm and emission at 530 nm, to determine the background fluorescence of the control sample. After the 3 h incubation, the samples were read for fluorescence as above (T=3 h).
(§2) The Relative Fluorescence Unit values (RFU) were used to calculate the sample readings as follows: RFU(T=3h)−Control RFU(T=0)=Net RFU(T=3h) The activity of caspase cascade activation was determined by the ratio of the net RFU value for 2-amino-3-cyano-4-(5-methyl-pyridin-3-yl)-7-methyl-4H-pyrrolo[2,3-h]chromene or other test compound to that of control samples. The EC50 (nM) was determined by a sigmoidal dose-response calculation (Prism 2.0, GraphPad Software Inc.).

ZR-75-1 = assay: Caspase cascade activation assay in ZR-75-1 cells (N-(Ac-DEVD)-N'-ethoxycarbonyl-R110 fluorogenic substrate); format: cell-based; conditions: ZR-75-1 human breast cancer cells, 24 h incubation; for Caspase activity (Ratio): ratio of net RFU of test compound to control; for EC50: sigmoidal dose-response, read-out: Caspase potency EC50
Protocol: as §1, §2

EC50 (T-47D) | EC50 (ZR-75-1) | EC50 (T-47D; T47D) | Compound | Caspase activity (Ratio) (T-47D) | Caspase activity (Ratio) (ZR-75-1)
– | 1.1 nM | 2.9 nM | Cn1ccc2c3c(ccc21)C(c1cncc(Br)c1)C(C#N)=C(N)O3 (stereo not shown) [Example 11, 2-Amino-4-(5-bromo-pyridin-3-yl)-3-cyano-7-methyl-4H-pyrrolo [2,3-h]chromene] | 4.6 | 4.1
– | 1 nM | 1.6 nM | COc1cc(C2C(C#N)=C(N)Oc3c2ccc2c3ccn2C)cc(Br)c1OC (stereo not shown) [Example 16, 2-Amino-4-(3-bromo-4,5-dimethoxyphenyl)-3-cyano-7-methyl-4H-pyrrolo[2,3-h]chromene] | 8.1 | 11.7
– | 1.6 nM | 2.1 nM | COc1cc(C2C(C#N)=C(N)Oc3c2ccc2c3ccn2CO)cc(Br)c1OC (stereo not shown) [Example 17, 2-Amino-4-(3-bromo-4,5-dimethoxyphenyl)-3-cyano-7-hydroxymethyl-4H-pyrrolo[2,3-h]chromene] | 7.2 | 3.3
– | 3.4 nM | 6 nM | COc1cc(C2C(C#N)=C(N)Oc3c2ccc2c3ccn2C)cc(Br)c1O (stereo not shown) [Example 18, 2-Amino-4-(3-bromo-4-hydroxy-5-methoxyphenyl)-3-cyano-7-methyl-4H-pyrrolo[2,3-h]chromene] | 4.0 | 6.6
– | 107 nM | 231 nM | COc1cc(C2C(C#N)=C(N)Oc3c2ccc2c3ccn2CC2CO2)cc(Br)c1OC (stereo not shown) [Example 19, 2-Amino-4-(3-bromo-4,5-dimethoxyphenyl)-3-cyano-7-oxiranylmethyl-4H-pyrrolo[2,3-h]chromene] | 10.2 | 11.7
– | 2.4 nM | 3.7 nM | Cc1cncc(C2C(C#N)=C(N)Oc3c2ccc2c3ccn2CO)c1 (stereo not shown) [Example 20, 2-Amino-3-cyano-4-(5-methyl-pyridin-3-yl)-7-hydroxymethyl-4H-pyrrolo[2,3-h]chromene] | 4.7 | 6.3
– | 1.6 nM | 3 nM | N#CC1=C(N)Oc2c(ccc3c2ccn3CO)C1c1cncc(Br)c1 (stereo not shown) [Example 21, 2-Amino-4-(5-bromo-pyridin-3-yl)-3-cyano-7-hydroxymethyl-4H-pyrrolo[2,3-h]chromene] | 2.2 | 4.4
– | 2.3 nM | 3.3 nM | COc1cc(C2C(C#N)=C(N)Oc3c2ccc2c3CCN2C)cc(Br)c1OC (stereo not shown) [Example 23, 2-Amino-4-(3-bromo-4,5-dimethoxyphenyl)-3-cyano-8,9-dihydro-7-methyl-4H-pyrrolo[2,3-h]chromene] | 5.2 | 5.0
– | 2.2 nM | 3.4 nM | COc1cc(C2C(C#N)=C(N)Oc3c2ccc2c3ccn2C)cc(OC)c1OC (stereo not shown) [Example 24, 2-Amino-3-cyano-4-(3,4,5-trimethoxyphenyl)-7-methyl-4H-pyrrolo[2,3-h]chromene] | 5.5 | 7.1
– | 3.2 nM | 7.2 nM | Cn1ccc2c3c(ccc21)C(c1cccc([N+](=O)[O-])c1)C(C#N)=C(N)O3 (stereo not shown) [Example 25, 2-Amino-3-cyano-4-(3-nitrophenyl)-7-methyl-4H-pyrrolo[2,3-h]chromene] | 3.2 | 7.1
– | 1.7 nM | 3.5 nM | COc1cc(OC)cc(C2C(C#N)=C(N)Oc3c2ccc2c3ccn2C)c1 (stereo not shown) [Example 26, 2-Amino-3-cyano-4-(3,5-dimethoxyphenyl)-7-methyl-4H-pyrrolo[2,3-h]chromene] | 5.2 | 7.1

More lines, now with the values behind:

Compound | EC50 (T-47D) | EC50 (ZR-75-1) | EC50 (T-47D; T47D) | Caspase activity (Ratio) (T-47D) | Caspase activity (Ratio) (ZR-75-1)
2-Amino-3-cyano-4-(5-methyl-pyridin-3-yl)-7-methyl-4H-imidazo[4,5-h]chromene [Example 14] | 19.8 nM | 10.4 nM | – | 8.0 | 9.9
2-Amino-4-(3-bromo-4,5-dimethoxyphenyl)-3-cyano-7-(2-diethyl-amino-ethyl)-4H-pyrrolo[2,3-h]chromene [Example 6] | 413 nM | 259 nM | – | 3.3 | 7.0
2-Amino-4-(3-bromo-4,5-dimethoxyphenyl)-3-cyano-7-methyl-4H-imidazo[4,5-h]chromene [Example 12] | 1.6 nM | 1.5 nM | – | 5.4 | 8.5
2-Amino-4-(5-bromo-pyridin-3-yl)-3-cyano-7-methyl-4H-imidazo[4,5-h]chromene [Example 13] | 6.8 nM | 3.2 nM | – | 8.8 | 8.0
Cn1ccc2c3c(ccc21)C(c1cncc(C#N)c1)C(C#N)=C(N)O3 (stereo not shown) [Example 1, 2-Amino-4-(5-cyano-pyridin-3-yl)-3-cyano-7-methyl-4H-pyrrolo[2,3-h]chromene] | – | 6.5 nM | 25.5 nM | 8.3 | 5.2
Cc1cncc(C2C(C#N)=C(N)Oc3c2ccc2c3ccn2C)n1 (stereo not shown) [Example 2, 2-Amino-3-cyano-7-methyl-4-(6-methyl-pyrazin-2-yl)-4H-pyrrolo[2,3-h]chromene] | – | 41.3 nM | 110 nM | 8.2 | 4.3
Cn1ccc2c3c(ccc21)C(c1cnc2ccccc2n1)C(C#N)=C(N)O3 (stereo not shown) [Example 3, 2-Amino-3-cyano-7-methyl-4-(quinoxalin-2-yl)-4H-pyrrolo[2,3-h]-chromene] | – | 27.8 nM | 58.1 nM | 5.6 | 3.1
CCn1ccc2c3c(ccc21)C(c1cc(Br)c(OC)c(OC)c1)C(C#N)=C(N)O3 (stereo not shown) [Example 4, 2-Amino-4-(3-bromo-4,5-dimethoxyphenyl)-3-cyano-7-ethyl-4H-pyrrolo[2,3-h]chromene] | – | 13.1 nM | 14 nM | 6.6 | 9.2
COc1cc(C2C(C#N)=C(N)Oc3c2ccc2c3ccn2CC2CC2)cc(Br)c1OC (stereo not shown) [Example 5, 2-Amino-4-(3-bromo-4,5-dimethoxyphenyl)-3-cyano-7-cyclopropylmethyl-4H-pyrrolo[2,3-h]chromene] | – | 28.6 nM | 55.3 nM | 4.0 | 3.0
Cn1ccc2c3c(ccc21)C(c1cncc(Cl)c1)C(C#N)=C(N)O3 (stereo not shown) [Example 7, 2-Amino-4-(5-chloro-pyridin-3-yl)-3-cyano-7-methyl-4H-pyrrolo[2,3-h]chromene] | – | 2.7 nM | 6.7 nM | 5.1 | 13.1
Cn1ccc2c3c(ccc21)C(c1c[nH]c2ccccc12)C(C#N)=C(N)O3 (stereo not shown) [Example 8, 2-Amino-3-cyano-4-(indol-3-yl)-7-methyl-4H-pyrrolo[2,3-h]chromene] | – | 55 nM | 58.7 nM | 3.8 | 8.9
Cn1ccc2c3c(ccc21)C(c1cnc(O)c(Cl)c1)C(C#N)=C(N)O3 (stereo not shown) [Example 9, 2-Amino-4-(5-chloro-6-hydroxy-pyridin-3-yl)-3-cyano-7-methyl-4H-pyrrolo[2,3-h]chromene] | – | 6.2 nM | 14.2 nM | 8.3 | 7.8
Cc1cncc(C2C(C#N)=C(N)Oc3c2ccc2c3ccn2C)c1 (stereo not shown) [Example 10, 2-Amino-3-cyano-4-(5-methyl-pyridin-3-yl)-7-methyl-4H-pyrrolo[2,3-h]chromene] | – | 1.6 nM | 2.3 nM | 3.1 | 6.6
COc1cc(C2C(C#N)=C(N)Oc3c2ccc2c3ccn2C)cc(Br)c1OC(C)=O (stereo not shown) [Example 22, 2-Amino-4-(4-acetoxy-3-bromo-5-methoxyphenyl)-3-cyano-7-methyl-4H-pyrrolo[2,3-h]chromene] | – | 2 nM | 3.4 nM | 5.3 | 7.2
